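These data come from cells grown in 96-well plates and exposed to compound for 48 hours at five concentrations. GI50 = concentration required for 50% inhibition of growth.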 Activity calls are given as the source filed them. No stated cut-off is given here; in the data, active = GI50 up to about 1.1 µM and inactive = higher.

Test systems include OVCAR-4; K562; KM12; RPMI-8226; NCI-H522; COLO 205; M14; IGROV-1; SK-MEL-28; NCI-H23; HOP-92; SK-OV-3; A549; A498; HOP-62; TK-10; HCT-15.
Experiment in all cases: NCI anticancer screen, dose series, 48 h

Regarding `COc1cc(/C=C2/C(=O)N(C(=O)OCc3ccccc3)C(Cc3cc(OC)c(OC)c(C)c3OC)C(=O)N2Cc2ccccc2)c(OC)c(C)c1OC` (configuration not stated), the GI50 with OVCAR-4 is > 100 µM (inactive); in the test on K562, 39 µM (inactive); in the test with KM12 it was > 100 µM (inactive); in the test on RPMI-8226, 20.9 µM (inactive); in the test with NCI-H522 it was 11 µM (inactive); with COLO 205, > 100 µM (inactive). For the same compound, the GI50 is > 100 µM (inactive) with M14; > 100 µM (inactive) with IGROV-1; > 100 µM (inactive) with SK-MEL-28; > 100 µM (inactive) in the test with NCI-H23; 2.64 µM (inactive) with HOP-92; > 100 µM (inactive) in the test on SK-OV-3. In addition, the GI50 is > 100 µM (inactive) with A549, 88.7 µM (inactive) in the test with A498, > 100 µM (inactive) in the test on HOP-62 and > 100 µM (inactive) in the test on TK-10.
`CS/C(=N/C(=O)c1ccccc1)SCCS/C(=N\C(=O)c1ccccc1)SC`: the GI50 in the test on OVCAR-4 was 25 µM (inactive); in the test on HCT-15, more than 100 µM; with K562, > 100 µM (inactive); in the test with KM12, > 100 µM (inactive); in the test on RPMI-8226 it was > 100 µM (inactive); with NCI-H522 it was 69.2 µM (inactive). Moreover, the GI50 with COLO 205 is > 100 µM (inactive); with M14 it was > 100 µM (inactive); in the test on IGROV-1 it was > 100 µM (inactive); in the test on SK-MEL-28, > 100 µM (inactive); in the test with NCI-H23 it was > 100 µM (inactive); with HOP-92 it was 20 µM (inactive). Besides, the GI50 in the test on A549 was > 100 µM (inactive); with A498, > 100 µM (inactive); in the test with HOP-62 it was 62.2 µM (inactive); with TK-10 it was > 100 µM (inactive).
For the compound `O=C1c2ccccc2C2(O)c3cc4ccccc4cc3OC12O` (configuration not stated), the GI50 in the test on OVCAR-4 is 84.7 µM (inactive); in the test with HCT-15, 53.2 µM; in the test with K562, 46 µM (inactive); in the test with KM12, 46.8 µM (inactive); in the test on RPMI-8226, 34 µM (inactive); in the test with NCI-H522, 40.9 µM (inactive). Further, the GI50 was > 100 µM (inactive) with COLO 205; 56.9 µM (inactive) with M14; 85.7 µM (inactive) with IGROV-1; 59.3 µM (inactive) in the test on SK-MEL-28; 55.6 µM (inactive) in the test on NCI-H23; 27.6 µM (inactive) in the test on HOP-92. The GI50 is > 100 µM (inactive) in the test on SK-OV-3; 44.4 µM (inactive) with A549; > 100 µM (inactive) with A498; 83.8 µM (inactive) in the test on HOP-62; > 100 µM (inactive) with TK-10.
`CC(=O)O[C@H]1CCC2[C@@H]3CCC4C(=O)c5oncc5C[C@]4(C)C3CC[C@@]21C` (some centres not stated): the GI50 was 5.21 µM (inactive) in the test with OVCAR-4; more than 100 µM with HCT-15; > 100 µM (inactive) in the test on K562; > 100 µM (inactive) in the test on KM12; > 100 µM (inactive) in the test on RPMI-8226; > 100 µM (inactive) in the test with COLO 205. Besides, the GI50 with M14, with IGROV-1, in the test on SK-MEL-28, in the test with NCI-H23, with HOP-92 and in the test with SK-OV-3 was > 100 µM (inactive) in each case. For the same compound, the GI50 is > 100 µM (inactive) with A549, 21.7 µM (inactive) in the test on A498, > 100 µM (inactive) in the test with HOP-62 and > 100 µM (inactive) in the test with TK-10.
Take `OCCCc1cnco1`: the GI50 with OVCAR-4 is > 100 µM (inactive); in the test on HCT-15, more than 100 µM; in the test on K562, > 100 µM (inactive); with KM12, > 100 µM (inactive); in the test with RPMI-8226, > 100 µM (inactive); with COLO 205, > 100 µM (inactive). Also, the GI50 with M14, in the test with IGROV-1, in the test on SK-MEL-28, with NCI-H23, in the test on HOP-92 and in the test on SK-OV-3 was > 100 µM (inactive) throughout. In addition, the GI50 in the test with A549, in the test with A498, in the test on HOP-62 and in the test on TK-10 was > 100 µM (inactive) each time.
Turning to `COC1=CC(O)(CC(N)=O)c2ccccc2C1=O` (configuration not stated), the GI50 is > 100 µM (inactive) with OVCAR-4; more than 100 µM in the test on HCT-15; > 100 µM (inactive) in the test with K562; > 100 µM (inactive) in the test on KM12; > 100 µM (inactive) with RPMI-8226; > 100 µM (inactive) in the test with NCI-H522. Besides, the GI50 with COLO 205, in the test on M14, with IGROV-1, with SK-MEL-28, with HOP-92 and with SK-OV-3 was > 100 µM (inactive) in each case. For the same compound, the GI50 in the test on A549, with A498, with HOP-62 and with TK-10 was > 100 µM (inactive) throughout.
For `N/C(=N\O)N/N=C\c1c2ccccc2c(Cl)c2ccccc12`, the GI50 was 3.78 µM (inactive) in the test with OVCAR-4; 5.82 µM with HCT-15; 3.72 µM (inactive) with K562; 4.85 µM (inactive) with KM12; 3.3 µM (inactive) with RPMI-8226; 3.8 µM (inactive) in the test with NCI-H522. For the same compound, the GI50 in the test on COLO 205 was 3.67 µM (inactive); with M14, 12.1 µM (inactive); in the test with IGROV-1 it was 3.38 µM (inactive); in the test on SK-MEL-28, 13.5 µM (inactive); in the test with NCI-H23 it was 5.04 µM (inactive); with HOP-92, 3.16 µM (inactive). The GI50 with SK-OV-3 was 2.57 µM (inactive); with A549 it was 2.99 µM (inactive); with A498 it was 13.5 µM (inactive); in the test with HOP-62 it was 10.5 µM (inactive); in the test with TK-10, 11.8 µM (inactive).
Consider `CCN(CC)C(=O)c1c(Cl)cc(N(CC)CC)oc1=O`, for which the GI50 with OVCAR-4 was > 100 µM (inactive); in the test with HCT-15, more than 100 µM; in the test with K562, > 100 µM (inactive); in the test with KM12 it was > 100 µM (inactive); in the test on RPMI-8226, > 100 µM (inactive); in the test on NCI-H522, > 100 µM (inactive). Besides, the GI50 in the test with COLO 205, in the test with M14, in the test with IGROV-1, in the test with SK-MEL-28, in the test on NCI-H23 and in the test on HOP-92 was > 100 µM (inactive) in each case. The GI50 with SK-OV-3, in the test with A549, in the test on A498, in the test on HOP-62 and in the test with TK-10 was > 100 µM (inactive) in each case.
As to `O=C1O/C(=C(/c2ccc(Cl)cc2)c2nc3ccccc3[nH]2)C(O)=C1c1ccc(Cl)cc1`, the GI50 in the test with OVCAR-4 is 2.4 µM (inactive); in the test with K562, 1.85 µM (inactive); in the test on KM12, 3.29 µM (inactive); in the test with RPMI-8226 it was 2.28 µM (inactive); with NCI-H522 it was 0.944 µM (active); in the test with COLO 205 it was 1.59 µM (inactive). For the same compound, the GI50 with M14 was 4.06 µM (inactive); in the test on IGROV-1, 5.3 µM (inactive); with SK-MEL-28, 3.85 µM (inactive); in the test on NCI-H23 it was 1.38 µM (inactive); with HOP-92 it was 1.32 µM (inactive); with SK-OV-3, 2.86 µM (inactive). In addition, the GI50 in the test on A549 was 2.4 µM (inactive); in the test with A498, 2.47 µM (inactive); in the test with HOP-62, 1.8 µM (inactive); with TK-10, 2.96 µM (inactive).
In the case of `CC(=O)OCC1OC(n2c(-c3ccc(N)cc3)cc(-c3ccco3)c(C#N)c2=O)C(OC(C)=O)C(OC(C)=O)C1OC(C)=O` (configuration not stated), the GI50 in the test with OVCAR-4 was 38.5 µM (inactive); with HCT-15, more than 50 µM; with KM12 it was 7.29 µM (inactive); in the test with NCI-H522, 8.17 µM (inactive); with COLO 205, > 50 µM (inactive); in the test on M14, > 50 µM (inactive). For the same compound, the GI50 in the test on IGROV-1 is 45 µM (inactive); with SK-MEL-28 it was > 50 µM (inactive); in the test on NCI-H23 it was 26 µM (inactive); in the test on HOP-92, 4.08 µM (inactive); in the test on SK-OV-3 it was > 50 µM (inactive); in the test with A549 it was 15.6 µM (inactive). The GI50 with A498, with HOP-62 and with TK-10 was > 50 µM (inactive) in each case.
Turning to `C/C(C=O)=C1\C(O)C[C@]1(C)C1CC(C)(C)CC1O` (some centres not stated), the GI50 in the test on OVCAR-4 was 35.7 µM (inactive); with K562, 54.6 µM (inactive); with KM12, > 100 µM (inactive); in the test with RPMI-8226, 42.3 µM (inactive); in the test on NCI-H522, 32 µM (inactive); with COLO 205 it was > 100 µM (inactive). Moreover, the GI50 in the test with M14 was 47.3 µM (inactive); with SK-MEL-28, > 100 µM (inactive); in the test with NCI-H23, > 100 µM (inactive); in the test with HOP-92, 74.1 µM (inactive); in the test with A549, > 100 µM (inactive); in the test on A498 it was > 100 µM (inactive). In addition, the GI50 in the test with HOP-62 and in the test with TK-10 was > 100 µM (inactive) each time.
In the case of `CN(C)c1ccc(N=O)c(O)c1.CN(C)c1ccc(N=O)c(O)c1.[SiH4]`, the GI50 with OVCAR-4 was 12.7 µM (inactive); in the test on K562 it was 16.3 µM (inactive); in the test with KM12, 14.6 µM (inactive); in the test with RPMI-8226 it was 31.6 µM (inactive); in the test on NCI-H522, 1.53 µM (inactive); in the test on COLO 205, 2.96 µM (inactive). Also, the GI50 with M14 was 11.7 µM (inactive); with IGROV-1, 20.9 µM (inactive); with SK-MEL-28, 13.2 µM (inactive); in the test with NCI-H23, 10.1 µM (inactive); in the test on HOP-92, 3.82 µM (inactive); with SK-OV-3 it was 20.7 µM (inactive). Besides, the GI50 with A549 is 12.4 µM (inactive); in the test with A498 it was 21.3 µM (inactive); in the test on HOP-62, 23 µM (inactive); in the test on TK-10 it was 14.1 µM (inactive).

The values are drawn from ChEMBL document CHEMBL1201862, “PubChem BioAssay data set” (2004).
